These results are taken from ChEMBL document CHEMBL6121067, “Mitophagy in Neurodegenerative Diseases: Mechanisms of Action and the Advances of Drug Discovery” (J Med Chem, 2025).

Data set [1] deals with T1, Ubiquitin carboxyl-terminal hydrolase 30 (Homo sapiens, UniProt Q70CQ3).
T1 sequence (Q70CQ3 whole entry): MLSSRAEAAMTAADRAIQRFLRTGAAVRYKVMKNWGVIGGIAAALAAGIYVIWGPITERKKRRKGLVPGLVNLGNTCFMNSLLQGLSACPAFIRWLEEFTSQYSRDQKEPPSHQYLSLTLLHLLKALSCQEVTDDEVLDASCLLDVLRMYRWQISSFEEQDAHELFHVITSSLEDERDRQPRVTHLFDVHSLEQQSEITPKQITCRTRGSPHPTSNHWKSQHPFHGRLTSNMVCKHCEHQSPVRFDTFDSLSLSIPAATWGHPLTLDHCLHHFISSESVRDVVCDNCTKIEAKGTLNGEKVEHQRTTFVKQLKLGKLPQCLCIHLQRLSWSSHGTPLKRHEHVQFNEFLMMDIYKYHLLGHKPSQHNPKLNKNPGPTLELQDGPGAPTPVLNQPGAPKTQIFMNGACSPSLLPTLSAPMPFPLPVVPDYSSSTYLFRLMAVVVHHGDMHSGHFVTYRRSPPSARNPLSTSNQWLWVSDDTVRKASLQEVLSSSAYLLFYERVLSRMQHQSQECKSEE
Description: Inhibition of USP30 (unknown origin).

In data set [2] the target is Serine/threonine-protein kinase PINK1, mitochondrial (Homo sapiens, UniProt Q9BXM7). The experiment in a line: Activation of full length recombinant PINK1 (unknown origin) extracted from Escherichia coli BL21 (DE3) by UV absorbance based analysis.
A short description of data set [3]: Solubility of compound at pH 6.8 incubated for 4 hrs by HPLC or LC-MS/MS analysis. The format is physicochemical. Conditions: buffer.

SMILES strings stand for the structures. Converted amounts (≈) assume the structure as drawn.

Sequence of Serine/threonine-protein kinase PINK1, mitochondrial (Q9BXM7 whole entry): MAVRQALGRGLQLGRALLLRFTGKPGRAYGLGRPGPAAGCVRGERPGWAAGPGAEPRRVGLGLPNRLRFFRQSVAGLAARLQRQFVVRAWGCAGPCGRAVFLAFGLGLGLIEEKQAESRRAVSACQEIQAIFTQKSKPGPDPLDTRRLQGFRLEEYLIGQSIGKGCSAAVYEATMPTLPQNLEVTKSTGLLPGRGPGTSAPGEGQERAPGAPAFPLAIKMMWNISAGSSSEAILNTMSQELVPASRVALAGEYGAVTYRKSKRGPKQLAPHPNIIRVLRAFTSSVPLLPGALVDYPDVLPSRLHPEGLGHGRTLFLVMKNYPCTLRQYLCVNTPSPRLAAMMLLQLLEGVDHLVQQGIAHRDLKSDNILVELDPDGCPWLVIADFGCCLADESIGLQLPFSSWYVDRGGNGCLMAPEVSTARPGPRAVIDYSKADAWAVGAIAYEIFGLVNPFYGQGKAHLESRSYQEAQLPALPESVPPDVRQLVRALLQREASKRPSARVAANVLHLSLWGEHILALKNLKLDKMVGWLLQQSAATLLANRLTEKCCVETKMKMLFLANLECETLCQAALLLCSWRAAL

A word on the IC50: it is the concentration needed to halve the response being measured. A high value points to weaker potency. `COc1cc(C(=O)N[C@@H]2CCN(C#N)C2)ccc1-c1cnn(C)c1` displayed an IC50 in data set [1] of 0.015 µM. This counts as double-digit nanomolar.
Take `N#CN1CC[C@@H](NC(=O)N2CC(c3ccn(-c4ccccc4)n3)C2)C1`: the IC50 in data set [1] came to 0.015 µM.
In data set [1], `N#CN1CC[C@H](CNC(=O)c2cc(-c3cccc(Cl)c3)no2)C1` gave an IC50 of 0.015 µM.
As a reminder, the EC50 is the concentration needed to bring the measured effect to its halfway point. By solubility is commonly meant how much of the substance goes into solution per volume. With `CC(C)[C@H]1Cn2ncc(-c3ccc(C(=O)N4CCCc5ccccc54)cc3)c2CN1C(=O)Cc1ccccc1`, the EC50 in data set [2] stood at 2.9 µM. Moreover, the concentration in solution in data set [3] (solubility at 4 h) came to 3.6 µg/mL (≈ 6.94 µM).
In the same order, the values of `C[C@@H](C(=O)N1Cc2c(-c3ccc(C(=O)N4CCCc5ccccc54)cc3)cnn2C[C@@H]1C)c1ccccc1` are 1.5 µM and 1.5 µg/mL (≈ 2.97 µM).
The compound `N#CN1CC[C@@H](NC(=O)c2cc(-c3ccccc3Oc3ccccc3)n[nH]2)C1` gave an IC50 in data set [1] of 0.0015 µM.
On the same count and under the same terms, in the case of `CCn1c(-c2ccc(OCC(=O)O)c(OC)c2)nc(-c2ccccc2)c1-c1ccccc1` it was 5.12 µM.
With `CO[C@@H](C(=O)N1Cc2c(-c3ccc(C(=O)N4CCCc5ccccc54)cc3)cnn2C[C@@H]1C(C)C)c1ccccc1`, the EC50 in data set [2] came out at 0.04 µM. The same compound registered a solubility at 4 h in data set [3] of 3.8 µg/mL (≈ 6.93 µM).
For the compound `CC(=O)N1Cc2c(-c3ccc(C(=O)N4CCCc5ccccc54)cc3)cnn2C[C@@H]1C`, in data set [2], the EC50 was 14.5 µM.
Regarding `CO[C@@H](C(=O)N1Cc2c(-c3ccc(C(=O)N4CCCc5ccccc54)cc3)cnn2C[C@@H]1C(C)C)c1cnn(C)c1`, the EC50 in data set [2] was 0.15 µM. This compound gave a solubility at 4 h in data set [3] of 65 µg/mL (≈ 118 µM).
Consider `COc1cc(-c2nc(-c3ccccc3)c(-c3ccccc3)n2C2CC2)ccc1OCC(=O)O`, for which it took 8.43 µM to reach half-maximal inhibition in data set [1] (IC50).
